# Patent publication US6737383B1, “Herbicidal oxadiazolidines” (priority 1999, dated 2004)
# Key:
# morningglory = assay: Test B pre/postemergence morningglory; type: in vivo, Ipomoea hederacea
# Method in brief: (§1)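 Herbicidal effect was estimated by eye on a ten-point control scale after plants spent twelve to sixteen days in a greenhouse following soil or foliar treatment. Foliar sprays targeted plants at one to four leaves; all doses were formulated in a non-phytotoxic solvent with surfactant.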
# pigweed = assay: Test B pre/postemergence pigweed; type: in vivo, Amaranthus retroflexus
# Method in brief: as §1
# wild oat [1] = assay: Test B pre/postemergence wild oat; type: in vivo, Avena fatua
# Method in brief: as §1
# winter wheat [2] = assay: Test E winter wheat; type: in vivo, Triticum aestivum; conditions: Postemergence
# Method in brief: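 Postemergence: 60:40 sandy loam/greenhouse potting mix, 1- to 4-leaf stage. Formulation: solvent plus surfactant. Assessment: visual comparison with untreated controls at ~21–28 days.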
# blackgrass = assay: Test E blackgrass; type: in vivo, Alopecurus myosuroides; conditions: Preemergence
# green foxtail = assay: Test E green foxtail; type: in vivo, Setaria viridis; conditions: Preemergence
# Italian ryegrass = assay: Test E Italian ryegrass; type: in vivo, Lolium multiflorum; conditions: Preemergence
# winter wheat [3] = assay: Test E winter wheat; type: in vivo, Triticum aestivum; conditions: Preemergence
# wild oat [4] = assay: Test E wild oat; type: in vivo, Avena fatua; conditions: Preemergence
# winter barley = assay: Test E winter barley; type: in vivo, Hordeum vulgare; conditions: Preemergence
# [5] = Preemergence, Rate 62 g/ha, scale of 0 to 10 where 0 is no effect and 10 is complete control
# [6] = Preemergence, Rate 250 g/ha, scale of 0 to 10 where 0 is no effect and 10 is complete control
# [7] = Preemergence, Rate 500 g/ha, scale of 0 to 10 where 0 is no effect and 10 is complete control
# [8] = Rate 62 g/ha, Postemergence, scale of 0 to 10 where 0 is no effect and 10 is complete control
# [9] = Rate 125 g/ha, Postemergence, scale 0 to 10
# [10] = Rate 125 g/ha, Preemergence, scale of 0 to 10 where 0 is no effect and 10 is complete control
# [11] = Rate 500 g/ha, Postemergence, scale 0 to 10, 0 no effect, 10 complete control
# [12] = Rate 500 g/ha, 0 to 100 scale where 0 is no effect and 100 is complete control
# [13] = Rate 1000 g/ha, 0 to 100 scale, 0 no effect, 100 complete control
# [14] = Rate 62 g/ha, Postemergence, scale 0 to 10 (0 no effect, 10 complete control)
# [15] = Rate 125 g/ha, Postemergence, scale of 0 to 10 where 0 is no effect and 10 is complete control
# [16] = Rate 250 g/ha, Postemergence, scale of 0 to 10 where 0 is no effect and 10 is complete control
# [17] = Rate 125 g/ha, 0 to 100 scale (0 no effect, 100 complete control)
structure (smiles),measurement,setting,value
Cc1ccccc1N(C(=O)n1oc(=O)n(-c2ccccc2C)c1=O)C(C)C [Compound 236],Morningglory plant response rating,morningglory; [5],0
same,Morningglory plant response rating,morningglory; [6],0
same,"Plant response rating, Morningglory",morningglory; [7],0
same,Morningglory plant response rating,morningglory; [8],4
same,Morningglory plant response rating,morningglory; [9],4
same,Morningglory plant response rating,morningglory; [10],0
same,"Plant response rating (0 to 10; 0 is no effect, 10 is complete control), Morningglory","morningglory; Rate 250 g/ha, Postemergence",5
same,Morningglory plant response rating,morningglory; [11],6
same,Redroot pigweed plant response rating,pigweed; [5],0
same,Redroot pigweed plant response rating,pigweed; [6],0
same,"Plant response rating, Redroot pigweed",pigweed; [7],0
same,Redroot pigweed plant response rating,pigweed; [8],0
same,Redroot pigweed plant response rating,pigweed; [9],0
same,Redroot pigweed plant response rating,pigweed; [10],0
same,"Plant response rating (0 to 10; 0 is no effect, 10 is complete control), Redroot pigweed","pigweed; Rate 250 g/ha, Postemergence",0
same,Redroot pigweed plant response rating,pigweed; [11],0
same,Wild oats plant response rating,wild oat [1]; [5],0
same,Wild oats plant response rating,wild oat [1]; [6],0
same,"Plant response rating, Wild oats",wild oat [1]; [7],2
same,Wild oats plant response rating,wild oat [1]; [8],0
same,Wild oats plant response rating,wild oat [1]; [9],0
same,Wild oats plant response rating,wild oat [1]; [10],0
same,"Plant response rating (0 to 10; 0 is no effect, 10 is complete control), Wild oats","wild oat [1]; Rate 250 g/ha, Postemergence",0
same,Wild oats plant response rating,wild oat [1]; [11],0
same,"Plant response rating, Wheat (winter)","winter wheat [2]; Rate 1000 g/ha, 0 to 100 scale where 0 is no effect and 100 is complete control",10
same,Wheat (winter) plant response rating,"winter wheat [2]; Rate 250 g/ha, 0 to 100 scale where 0 is no effect and 100 is complete control",0
same,"Plant response rating, Wheat (winter)","winter wheat [2]; Rate 500 g/ha, 0 to 100 scale, 0 is no effect, 100 is complete control",0
same,Blackgrass plant response rating (0 to 100 scale),blackgrass; Rate 250 g/ha,60
same,"Plant response rating, Blackgrass",blackgrass; [12],60
same,"Plant response rating, Blackgrass",blackgrass; [13],70
same,Green foxtail plant response rating (0 to 100 scale),green foxtail; Rate 250 g/ha,85
same,"Plant response rating, Green foxtail",green foxtail; [12],100
same,"Plant response rating, Green foxtail",green foxtail; [13],100
same,I. Ryegrass plant response rating (0 to 100 scale),Italian ryegrass; Rate 250 g/ha,20
same,"Plant response rating, I. Ryegrass",Italian ryegrass; [12],40
same,"Plant response rating, I. Ryegrass",Italian ryegrass; [13],55
same,Wheat (winter) plant response rating (0 to 100 scale),winter wheat [3]; Rate 250 g/ha,0
same,"Plant response rating, Wheat (winter)",winter wheat [3]; [12],10
same,"Plant response rating, Wheat (winter)",winter wheat [3]; [13],20
same,Wild oat plant response rating (0 to 100 scale),wild oat [4]; Rate 250 g/ha,20
same,"Plant response rating, Wild oat",wild oat [4]; [12],30
same,"Plant response rating, Wild oat",wild oat [4]; [13],50
same,Barley (winter) plant response rating (0 to 100 scale),winter barley; Rate 250 g/ha,20
same,"Plant response rating, Barley (winter)",winter barley; [12],40
same,"Plant response rating, Barley (winter)",winter barley; [13],50
CSCCn1c(=O)on(C(=O)N(c2ccc(F)cc2)C(C)C)c1=O [Compound 314],Morningglory plant response rating,morningglory; [5],0
same,Morningglory plant response rating (0 to 10 scale),"morningglory; Preemergence, Rate 125 g/ha",0
same,Morningglory plant response rating,morningglory; [6],0
same,Morningglory plant response rating,morningglory; [7],0
same,Morningglory plant response rating,morningglory; [14],2
same,Morningglory plant response rating,morningglory; [15],2
same,"Plant response rating, Morningglory",morningglory; [16],3
same,Redroot pigweed plant response rating,pigweed; [5],0
same,Redroot pigweed plant response rating (0 to 10 scale),"pigweed; Preemergence, Rate 125 g/ha",2
same,Redroot pigweed plant response rating,pigweed; [6],2
same,Redroot pigweed plant response rating,pigweed; [7],9
same,Redroot pigweed plant response rating,pigweed; [14],0
same,Redroot pigweed plant response rating,pigweed; [15],0
same,"Plant response rating, Redroot pigweed",pigweed; [16],0
same,Wild oats plant response rating,wild oat [1]; [5],0
same,Wild oats plant response rating (0 to 10 scale),"wild oat [1]; Preemergence, Rate 125 g/ha",2
same,Wild oats plant response rating,wild oat [1]; [6],2
same,Wild oats plant response rating,wild oat [1]; [7],3
same,Wild oats plant response rating,wild oat [1]; [14],0
same,Wild oats plant response rating,wild oat [1]; [15],0
same,"Plant response rating, Wild oats",wild oat [1]; [16],2
same,"Plant response rating, Wheat (winter)","winter wheat [2]; Rate 125 g/ha, 0 to 100 scale, 0 is no effect, 100 is complete control",65
same,"Plant response rating, Wheat (winter)","winter wheat [2]; Rate 250 g/ha, 0 to 100 scale, 0 is no effect, 100 is complete control",70
same,"Plant response rating, Blackgrass",blackgrass; [17],40
same,"Plant response rating, Blackgrass","blackgrass; Rate 250 g/ha, 0 to 100 scale",50
same,"Plant response rating, Green foxtail",green foxtail; [17],60
same,"Plant response rating, Green foxtail","green foxtail; Rate 250 g/ha, 0 to 100 scale",85
same,"Plant response rating, I. Ryegrass",Italian ryegrass; [17],50
same,"Plant response rating, I. Ryegrass","Italian ryegrass; Rate 250 g/ha, 0 to 100 scale",55
same,"Plant response rating, Wheat (winter)",winter wheat [3]; [17],65
same,"Plant response rating, Wheat (winter)","winter wheat [3]; Rate 250 g/ha, 0 to 100 scale",70
same,"Plant response rating, Wild oat",wild oat [4]; [17],70
same,"Plant response rating, Wild oat","wild oat [4]; Rate 250 g/ha, 0 to 100 scale",70
same,"Plant response rating, Barley (winter)",winter barley; [17],50
same,"Plant response rating, Barley (winter)","winter barley; Rate 250 g/ha, 0 to 100 scale, 0 no effect, 100 complete control",60
